In publication PMC5114727, “Biological characterization of chemically diverse compounds targeting the Plasmodium falciparum coenzyme A synthesis pathway” (Parasites & Vectors, 2016):
Several values for one entry are separate records, joined by “and”; a condition that tells them apart may be missing. Equal values may be shown once. Read-outs that look alike come from different tables or passages of the source.

Tests used:
[1] = tested on: panel of human cancer cell lines (MCF7, MDA-MB-231, PC-3); experiment: Cytotoxicity across the panel of cell lines; type: cell-based; details: for cytotoxicity against any of the cell lines investigated (in words): up to the highest tested concentration of 40 μM; for IC50: MCF7, MDA-MB-231, PC-3, read-out: IC50 range against the cancer cell lines
Source text: (§1) An initial indication of compound selectivity over human cells had previously been obtained through comparison of the compounds’ IC50 values against P. falciparum asexual stages and HEK293 [22]. In the present study, the selectivity investigation was extended to a small panel of human cancer cell lines, namely the estrogen receptor (ER)-positive breast cancer cell line MCF7, the ER-negative MDA-MB-231, as well as the human prostate cancer line, PC-3. Additionally, the cytotoxic effects on mouse embryonic fibroblast cell line 3T3, which serves as the host cell for T. cruzi in our image-based amastigote assay, were investigated.
(§2) Cytotoxicity of the compounds was assessed against a panel of human cancer cell lines, namely the estrogen receptor (ER)-positive breast cancer cell line MCF7, the ER-negative MDA-MB-231 and the prostate cancer line PC-3. All the cell lines were purchased from ATCC and maintained as previously described. Two biological replicates consisting of two technical replicates each were performed to generate concentration response curves (CRC) with a final highest concentration of 40 μM. A resazurin-based assay was utilized to determine cell viability as described earlier. Additionally, the cytotoxic effects on the mouse embryonic fibroblast cell line 3T3 were assessed as part of the Trypanosoma cruzi amastigote image-based assay as outlined in [35].

[2] = target: late stage gametocytes (stage IV to V) of P. falciparum line NF54^Pfs16; experiment: Gametocyte luciferase assay, late stage; type: cell-based, Plasmodium falciparum
Source text: (§3) To investigate a potential role of CoA biosynthesis for host to vector transmission of the malaria parasite, we investigated the activity of our compounds on P. falciparum gametocytes, the sexual stages of P. falciparum, essential for malaria transmission. […] Parasite stage-specificity and gametocytocidal activity of the compounds was therefore investigated, utilizing a luciferase-based approach on early stage (development from stage I to IIb/III [30]) and late stage (IV to V [51]) gametocytes.
(§4) Induction of P. falciparum gametocyte differentiation and gametocyte culturing were performed as previously described. Compound activity against early stage gametocytes (covering the development from stage I to IIb/III) and late stage gametocytes (stage IV to V) of the recombinant P. falciparum line NF54^Pfs16 was assessed in concentration-response assays, in two experimental replicates consisting of two technical repeats each, at a highest concentration of 40 μM, as described earlier.

[3] = target: early stage gametocytes (stage I to IIb/III) of P. falciparum line NF54^Pfs16; experiment: Gametocyte luciferase assay, early stage; type: cell-based, Plasmodium falciparum
Source text: as §3, §4

[4] = tested on: P. falciparum asexual blood stage; details: as previously reported; read-out: Asexual P. falciparum IC50 ± SEM; cited from earlier work
HEK293 cells = details: as previously reported; read-out: HEK293 cytotoxicity IC50 ± SEM; cited from earlier work
[5] = tested on: P. falciparum early stage gametocytes (PfEG, stage I-III); experiment: Chemical rescue with CoA pathway intermediates, early stage gametocytes; type: cell-based, Plasmodium falciparum; details: for Percent rescue ± SEM by CoA, PfEG: CoA 1.6 mM; for Percent rescue ± SEM by CoA, PfEG / Percent rescue ± SEM by pantethine, PfEG / Percent rescue ± SEM by pantothenate, PfEG: inhibitor at IC80; for Percent rescue ± SEM by pantethine, PfEG: pantethine 10 mM; for Percent rescue ± SEM by pantothenate, PfEG: pantothenate 625 μM
Procedure: (§5) Pantothenate is the first substrate of the pathway (Fig. 1) and its addition was intended to rescue the action of possible competitive inhibitors of the first enzyme, PanK. […] It is not known, whether P. falciparum is capable of pantetheine phosphorylation for utilization in CoA synthesis. […] Finally, the rescue ability of dP-CoA, the final substrate of CoA synthesis, was tested. […] Inhibitors competing with dP-CoA for DPCK binding were expected to be displaced, thereby rescuing parasite survival, by dP-CoA supplementation in a concentration dependent manner.
(§6) An imaging based assay was utilised to assess the chemical rescue on asexual stages of P. falciparum as described previously. All the pathway intermediates were purchased from Sigma. CoA and dP-CoA were dissolved in sterile distilled water to obtain a 20 mM stock solution, which was then aliquoted and stored at -20 °C until use. […] Each pathway intermediate was tested on the parasites at a range of concentrations to assess potential toxicity. […] On early stage P. falciparum gametocytes the same concentrations as for CoA were tested for dP-CoA; against asexual blood stage P. falciparum, late stage gametocytes and Trypanosoma b. brucei five dP-CoA concentrations were tested (2 mM, 1.5 mM, 1 mM, 0.75 mM and 0.5 mM).
(§7) The same concentration ranges of the CoA pathway intermediates were supplemented to parasites treated with the experimental compounds. […] The negative control used in each assay was 0.4% DMSO, whilst the positive control was 2 μM artemisinin for asexual P. falciparum blood stages and 5 μM puromycin for all gametocyte stages and T. b. brucei. The percentage growth of the respective parasites following compound treatment was determined using Microsoft ® Excel 2010, and compared with their controls. All rescue assays were performed as two independent experiments each in duplicate point.

[6] = tested on: P. falciparum asexual blood stages (PfAS); experiment: Chemical rescue with CoA pathway intermediates, asexual stages; type: cell-based, Plasmodium falciparum; details: inhibitor at IC80; for Percent rescue ± SEM by pantethine, PfAS: pantethine 125 μM; for Percent rescue ± SEM by pantothenate, PfAS: pantothenate 300 μM; for Percent rescue ± SEM by CoA, PfAS: CoA 0.8 mM; for Percent rescue ± SEM by dephospho CoA, PfAS: dP-CoA 0.8 mM
Procedure: as §5, §6
as §7, with “compounds. The inhibitors were used at their respective final assay concentration of IC80 (as determined previously in the corresponding P. falciparum development stage or T. b. brucei assay).” for “compounds.”

[7] = tested on: P. falciparum developmental stages; experiment: Activity across all P. falciparum life-cycle stages tested (asexual, early and late gametocytes); type: cell-based, Plasmodium falciparum; details: early and late stage gametocytes; for IC50: read-out: IC50 range across all P. falciparum life-cycle stages tested
Procedure: as §4

3T3 cells = experiment: 3T3 host cell cytotoxicity (part of T. cruzi amastigote image-based assay); parameters: species or system mouse; details: bound = highest concentration with < 50 % inhibition; read-out: 3T3 cytotoxicity IC50 ± SEM
Source text: as §1, §2

MCF7 cells = experiment: Resazurin cytotoxicity assay, MCF7; type: cell-based, human; details: highest concentration 40 μM; bound = highest concentration with < 50 % inhibition; read-out: MCF7 cytotoxicity IC50 ± SEM
Source text: as §1, §2

[8] = read-out: Late stage gametocyte IC50
[9] = read-out: Early stage gametocyte IC50
[10] = highest concentration 40 μM, read-out: Late stage gametocyte IC50 ± SEM
[11] = highest concentration 40 μM, read-out: Early stage gametocyte IC50 ± SEM

Structure (SMILES)	cytotoxicity against any of the cell lines investigated (in words) [1]	IC50 [2, 8] [nM]	IC50 [3, 9] [nM]	IC50 [4] [nM]	IC50 (HEK293 cells) [nM]	Percent rescue ± SEM by CoA, PfEG [5]	Percent rescue ± SEM by pantethine, PfEG [5]	Percent rescue ± SEM by pantothenate, PfEG [5]	Percent rescue ± SEM by pantethine, PfAS [6]	Percent rescue ± SEM by pantothenate, PfAS [6]	activity against all P. falciparum development stages tested (in words) [7]	IC50 [7] [nM]	IC50 (3T3 cells) [nM]	IC50 (MCF7 cells) [nM]	IC50 [1] [nM]	IC50 [2, 10]	IC50 [3, 11] [nM]	Percent rescue ± SEM by CoA, PfAS [6] [%]	Percent rescue ± SEM by dephospho CoA, PfAS [6] [%]	other results
Cc1csc(Sc2ncnc3sccc23)n1 [Amb180780]	no or only negligible cytotoxicity	70	60	120 ± 20	~40000	111.3 ± 3.2% and ~100%	94.2 ± 1.8% and ~100%	No	76.2 ± 7.7% and 76 ± 8%	No and not by pantothenate	sub-micromolar IC50 values	60 to 120	> 40000	> 40000						
CC(=O)c1ccc2c3c(onc13)-c1ccccc1C2=O [Amb3377585]				150 ± 10	2750 ± 180		No	No	No	No				9100 ± 620	5000 to 9000	6220 ± 2500 nM	250 ± 10	89.3 ± 2.6	38.7 ± 4.7	
CC(=O)C1=C(c2ccccc2)C(=O)c2ccccc2C1=O [Amb4317088]				1230 ± 60	2330 ± 120				No	No	moderate, single digit micromolar activity		8600 ± 960	4600 ± 160	870 to 4600	2240 nM and 2200 nM	2880 ± 180	84.5 ± 7.7	77.6 ± 5.5	
CC1=CC(=O)C(C(C)C)=C/C1=N/OS(=O)(=O)c1ccccc1 [STK 740987]	no or only negligible cytotoxicity	460	430	380 ± 60	> 40000	24.1 ±0.7% and 24 ± 1%	No and not rescued by the other intermediates	No and not rescued by the other intermediates	No	No	sub-micromolar IC50 values	380 to 460	> 20000	> 40000				103.9 ± 3.4	88.9 ± 6.7	activity on early stage gametocytes at previously determined IC80 value ([5]; compound alone in rescue experiment): > 95%; Percent rescue by CoA, PfEG, at the compound's IC50 ([5]; inhibitor at IC50): 61.5 ± 1.0% and 62 ± 1%; Percent rescue by dephospho CoA, PfEG, at the compound's IC50 ([5]; inhibitor at IC50): 46.2 ± 2.4% and 46 ± 2%; Rescue by pantethine, PfEG, at the compound's IC50 (in words) ([5]; inhibitor at IC50): unaffected; Rescue by pantothenate, PfEG, at the compound's IC50 (in words) ([5]; inhibitor at IC50): unaffected
